From BindingDB's records for doi:10.1016/j.bmcl.2003.11.047 (National Chung-Hsing University, 2004)

Molecular target: Phospholipase A2 (Naja mossambica)
Experiment: Binding affinity against phospholipase A2 of Naja mocambique mocambique

SMILES | Ki [µM]
CCCCCCCCNC(=O)Oc1cccc(OC(=O)NCCCCCCCC)c1 [Octyl-carbamic acid 3-octylcarbamoyloxy-phenyl ester] | 4
CCCCCCCCNC(=O)Oc1ccc(OC(=O)NCCCCCCCC)cc1 [Octyl-carbamic acid 4-octylcarbamoyloxy-phenyl ester] | 15
